From patent publication US9801880B2, “Use of kinase inhibitors” (BerGenBio AS, priority 2013, dated 2017) come the findings set out here.

SMILES strings stand for the structures.

In one series the test system is plasma protein. Nature of the series: Plasma protein binding. The format is in vitro ADME. The settings on record: in animals and humans.
In series [1] the test system is Ba/F3 cells (WT, FLT3 WT, FLT3 ITD, FLT3 D835Y). Nature of the series: WST-1 and 3H-Thymidine incorporation cell proliferation assays, all Ba/F3 lines. The format is cell-based, Murine. The settings on record: by 3 μM; regardless of cell line. From the text: Murine pro-B lymphocyte line Ba/F3 wild type (Ba/F3 WT), and Ba/F3 lines stably transduced with expression vectors that encoded wild-type human FLT3 (Ba/F3 FLT3 WT cells) or human FLT3 containing an ITD mutation (Ba/F3-ITD cells) or D835Y (Ba/F3 D835Y cells) point mutations, which lead to constitutively functional activation of the protein, were obtained from Bjørn Tore Gjertsen (Department of Clinical Science, Hematology Section, University of Bergen, Bergen, Norway). […]
Proliferation of cells was assessed using the tetrazolium salt WST-1 that is cleaved to chromogenic formazan dye by mitochondrial dehydrogenases in viable cells. […] The absorbance of the samples was measured by Spectramax Plus 384 Spectrophotometer (Molecular Devices Corp., Sunnyvale, Calif., USA) and the percentage of proliferation was calculated by using the following formula: (Arbitrary units (AU) of treated sample−AU of background control)/(AU of untreated sample−AU of background control).
Following 18 hours incubation, the DNA was harvested and radioactivity was assessed by liquid scintillation counting (Packard Microplate Scintillation and Luminescence counter, Perkin Elmer Life and Analytical Science, Inc., Waltham, USA).

The next series deals with Flt1 (Homo sapiens, UniProt P17948). Nature of the series: KinomeScan competition binding assay. Also on record: purchased DiscoveRx Corporation (KinomeScan service). From the text:
(§1) Detailed assay methodologies can be found in the relevant references cited herein, or in the KinaseProfiler Service Assay Protocols (v54, 2011) available from EMD Millipore (www.emdmillipore.com), or from the KinomeScan website (www.kinomescan.com), as appropriate. (For a more detailed description of KINOMEscan's assay technology, see: Fabian et al. A small molecule-kinase interaction map for clinical kinase inhibitors. Nat. Biotechnol. 23, 329-336 (2005)). A summary is provided below.
(§2) KinomeScan™ assays (DiscoveRx Corporation, San Diego, Calif., USA) are active-site-directed competition binding assays. […] The amount of kinase captured in test versus control samples is determined by using a qPCR method that detects the associated DNA label on each kinase molecule. Dissociation constants (Kd) for test compound-kinase interactions are calculated by measuring the amount of kinase captured on the solid support as a function of the test compound concentration.

The target in another series is TEK (Homo sapiens, UniProt Q02763). Nature of the series: KinomeScan competition binding assay. Also on record: purchased DiscoveRx Corporation (KinomeScan service).
Excerpt: as §1, §2

The target in a further series is Tyro3 (Homo sapiens, UniProt Q06418). Nature of the series: KinomeScan competition binding assay. Also on record: purchased DiscoveRx Corporation (KinomeScan service).
Excerpt: as §1, §2

A further series addresses c-Kit (D816H) (Homo sapiens, UniProt P10721, D816H). Nature of the series: KinaseProfiler kinase activity assay. In kind it is biochemical. Also on record: purchased EMD Millipore Corp. (KinaseProfiler service). Here is the method:
A summary is provided below.
KinaseProfiler™ assays (EMD Millipore Corp. Billerica, Mass., USA) are […] with purified or partially-purified human kinases. Most of the KinaseProfiler™ assays are conducted in 20 mM MOPS, 1 mM EDTA, 0.01% Brij-35, 5% Glycerol, 0.1% b-mercaptoethanol, 1 mg/mL BSA. The assay involves the transfer of ^32P from γ-^32P-ATP to the target peptide, followed by washing and trapping of the labeled peptide on a filter. The concentration of γ-^32P-ATP used was at the established Km for ATP.

The target in a further series is c-Kit (D816V) (Homo sapiens, UniProt P10721, D816V). Nature of the series: KinaseProfiler kinase activity assay. In kind it is biochemical. Also on record: purchased EMD Millipore Corp. (KinaseProfiler service).
c-Kit (D816V), sequence (P10721 26-976 D816V): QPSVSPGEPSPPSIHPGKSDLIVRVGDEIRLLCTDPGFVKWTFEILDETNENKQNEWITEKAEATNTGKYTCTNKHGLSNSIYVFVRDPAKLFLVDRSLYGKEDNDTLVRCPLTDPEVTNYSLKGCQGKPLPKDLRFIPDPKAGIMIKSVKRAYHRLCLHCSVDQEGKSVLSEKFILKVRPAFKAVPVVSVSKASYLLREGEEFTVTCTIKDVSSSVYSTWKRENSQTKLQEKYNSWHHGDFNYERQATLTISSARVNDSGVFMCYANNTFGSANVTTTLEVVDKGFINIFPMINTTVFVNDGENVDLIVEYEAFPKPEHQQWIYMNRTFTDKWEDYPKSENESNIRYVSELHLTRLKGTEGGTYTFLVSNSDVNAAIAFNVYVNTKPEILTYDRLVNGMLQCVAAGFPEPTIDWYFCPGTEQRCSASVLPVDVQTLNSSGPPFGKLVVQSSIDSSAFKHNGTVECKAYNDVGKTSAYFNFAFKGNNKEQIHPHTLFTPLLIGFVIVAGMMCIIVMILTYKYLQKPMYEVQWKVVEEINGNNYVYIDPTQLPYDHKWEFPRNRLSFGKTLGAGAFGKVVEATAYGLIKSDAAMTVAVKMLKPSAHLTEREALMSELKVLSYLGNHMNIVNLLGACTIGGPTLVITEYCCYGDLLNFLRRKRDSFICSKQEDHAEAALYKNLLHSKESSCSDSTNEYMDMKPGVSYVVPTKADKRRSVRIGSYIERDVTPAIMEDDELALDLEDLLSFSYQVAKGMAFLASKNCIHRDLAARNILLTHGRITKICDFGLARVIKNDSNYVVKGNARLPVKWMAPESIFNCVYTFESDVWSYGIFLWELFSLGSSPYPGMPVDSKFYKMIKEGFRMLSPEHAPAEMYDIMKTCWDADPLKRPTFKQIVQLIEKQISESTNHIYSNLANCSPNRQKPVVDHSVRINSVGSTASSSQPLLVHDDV

c-Kit (D816H), sequence (P10721 26-976 D816H): as the sequence (P10721 26-976 D816V) above, with V791H counted along it
Tyro3, sequence (Q06418 41-890): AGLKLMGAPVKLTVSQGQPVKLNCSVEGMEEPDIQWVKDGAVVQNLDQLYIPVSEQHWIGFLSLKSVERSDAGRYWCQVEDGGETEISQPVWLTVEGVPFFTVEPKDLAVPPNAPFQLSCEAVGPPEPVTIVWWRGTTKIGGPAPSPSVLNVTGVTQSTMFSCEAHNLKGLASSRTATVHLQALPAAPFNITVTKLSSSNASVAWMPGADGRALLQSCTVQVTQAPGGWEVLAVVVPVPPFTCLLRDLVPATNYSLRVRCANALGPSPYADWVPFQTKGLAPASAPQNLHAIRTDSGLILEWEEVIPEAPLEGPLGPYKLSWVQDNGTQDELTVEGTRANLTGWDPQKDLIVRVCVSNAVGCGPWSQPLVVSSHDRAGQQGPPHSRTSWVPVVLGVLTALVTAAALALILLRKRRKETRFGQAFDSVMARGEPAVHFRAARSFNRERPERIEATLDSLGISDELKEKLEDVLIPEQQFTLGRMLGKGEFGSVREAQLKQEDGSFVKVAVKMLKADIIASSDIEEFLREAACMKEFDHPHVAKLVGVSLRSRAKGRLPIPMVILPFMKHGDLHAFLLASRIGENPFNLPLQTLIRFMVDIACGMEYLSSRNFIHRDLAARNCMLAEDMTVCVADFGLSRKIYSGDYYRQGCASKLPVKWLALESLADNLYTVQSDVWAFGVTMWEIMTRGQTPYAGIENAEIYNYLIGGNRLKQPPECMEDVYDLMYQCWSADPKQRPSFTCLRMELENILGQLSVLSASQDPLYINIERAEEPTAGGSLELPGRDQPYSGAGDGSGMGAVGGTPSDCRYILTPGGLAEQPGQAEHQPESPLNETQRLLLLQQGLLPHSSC
Flt1, sequence (P17948 27-1338): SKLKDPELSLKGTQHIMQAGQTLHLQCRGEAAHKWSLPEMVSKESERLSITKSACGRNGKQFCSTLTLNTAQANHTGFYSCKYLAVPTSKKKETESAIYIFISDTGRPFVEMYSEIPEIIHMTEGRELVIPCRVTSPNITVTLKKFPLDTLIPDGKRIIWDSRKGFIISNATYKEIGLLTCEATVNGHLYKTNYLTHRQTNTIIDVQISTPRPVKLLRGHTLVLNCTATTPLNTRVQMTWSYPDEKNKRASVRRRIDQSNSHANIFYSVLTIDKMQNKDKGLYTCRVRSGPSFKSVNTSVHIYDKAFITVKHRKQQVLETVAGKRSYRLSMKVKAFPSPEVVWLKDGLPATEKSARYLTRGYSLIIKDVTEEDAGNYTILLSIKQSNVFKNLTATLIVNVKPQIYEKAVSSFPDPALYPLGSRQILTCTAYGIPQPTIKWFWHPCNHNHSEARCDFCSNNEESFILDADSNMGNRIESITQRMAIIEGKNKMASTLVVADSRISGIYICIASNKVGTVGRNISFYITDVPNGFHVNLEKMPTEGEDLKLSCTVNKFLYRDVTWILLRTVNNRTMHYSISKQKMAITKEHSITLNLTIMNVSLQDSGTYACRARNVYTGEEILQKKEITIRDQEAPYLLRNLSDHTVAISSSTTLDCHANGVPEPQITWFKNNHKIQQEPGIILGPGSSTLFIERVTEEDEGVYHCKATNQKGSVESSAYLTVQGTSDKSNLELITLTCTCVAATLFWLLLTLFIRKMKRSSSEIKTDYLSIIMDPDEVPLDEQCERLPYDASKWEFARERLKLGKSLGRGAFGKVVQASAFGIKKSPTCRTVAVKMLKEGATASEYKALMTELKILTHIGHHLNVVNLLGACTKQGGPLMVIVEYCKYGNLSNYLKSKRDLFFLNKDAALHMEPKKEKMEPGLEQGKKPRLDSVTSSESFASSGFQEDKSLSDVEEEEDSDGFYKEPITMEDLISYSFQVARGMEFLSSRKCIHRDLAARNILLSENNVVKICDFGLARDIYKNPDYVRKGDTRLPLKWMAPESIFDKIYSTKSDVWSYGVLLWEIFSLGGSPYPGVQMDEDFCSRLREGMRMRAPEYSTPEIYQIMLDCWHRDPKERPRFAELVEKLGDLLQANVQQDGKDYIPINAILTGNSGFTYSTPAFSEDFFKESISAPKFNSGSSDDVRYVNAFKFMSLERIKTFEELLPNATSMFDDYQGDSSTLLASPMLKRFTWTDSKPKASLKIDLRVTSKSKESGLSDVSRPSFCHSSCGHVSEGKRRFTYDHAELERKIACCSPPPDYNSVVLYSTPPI
TEK, sequence (Q02763 23-1124): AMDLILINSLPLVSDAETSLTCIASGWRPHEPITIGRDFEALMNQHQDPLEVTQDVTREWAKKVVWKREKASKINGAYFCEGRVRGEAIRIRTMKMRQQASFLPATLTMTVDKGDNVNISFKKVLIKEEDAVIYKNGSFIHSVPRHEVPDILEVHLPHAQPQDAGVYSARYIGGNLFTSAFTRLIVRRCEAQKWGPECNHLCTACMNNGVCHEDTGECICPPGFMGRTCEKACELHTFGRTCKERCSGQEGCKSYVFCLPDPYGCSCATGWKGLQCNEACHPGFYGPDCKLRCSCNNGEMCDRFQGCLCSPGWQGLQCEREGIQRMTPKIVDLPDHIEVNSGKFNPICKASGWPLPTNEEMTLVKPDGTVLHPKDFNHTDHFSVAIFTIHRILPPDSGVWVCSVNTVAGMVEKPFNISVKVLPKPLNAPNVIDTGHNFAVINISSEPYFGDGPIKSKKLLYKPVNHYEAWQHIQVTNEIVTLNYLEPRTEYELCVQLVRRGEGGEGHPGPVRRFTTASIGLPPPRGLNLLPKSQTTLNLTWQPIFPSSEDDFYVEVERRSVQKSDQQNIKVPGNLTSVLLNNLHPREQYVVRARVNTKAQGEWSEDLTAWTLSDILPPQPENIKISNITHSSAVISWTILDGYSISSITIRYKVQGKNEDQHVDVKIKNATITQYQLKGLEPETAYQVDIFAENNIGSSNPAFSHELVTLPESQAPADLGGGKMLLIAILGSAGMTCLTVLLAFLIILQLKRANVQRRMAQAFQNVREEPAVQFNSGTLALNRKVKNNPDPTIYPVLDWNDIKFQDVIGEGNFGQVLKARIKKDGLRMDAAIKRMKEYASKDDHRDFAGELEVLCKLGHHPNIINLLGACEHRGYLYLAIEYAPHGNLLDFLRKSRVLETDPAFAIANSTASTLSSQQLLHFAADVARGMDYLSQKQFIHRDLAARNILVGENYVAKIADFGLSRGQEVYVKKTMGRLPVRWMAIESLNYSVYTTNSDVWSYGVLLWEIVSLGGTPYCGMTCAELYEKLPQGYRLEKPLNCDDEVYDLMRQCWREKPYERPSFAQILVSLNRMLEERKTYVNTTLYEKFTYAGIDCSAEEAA
Procedure for c-Kit (D816V): KinaseProfiler™ assays (EMD Millipore Corp. Billerica, Mass., USA) are radioligand binding assays with purified or partially-purified human kinases. Most of the KinaseProfiler™ assays are conducted in 20 mM MOPS, 1 mM EDTA, 0.01% Brij-35, 5% Glycerol, 0.1% b-mercaptoethanol, 1 mg/mL BSA. The assay involves the transfer of ^32P from γ-^32P-ATP to the target peptide, followed by washing and trapping of the labeled peptide on a filter. The concentration of γ-^32P-ATP used was at the established Km for ATP.

As usually defined, the Kd is the constant that tells how readily two partners part at equilibrium. For orientation: IC50 means the midpoint of a concentration-inhibition curve. Low values mean greater potency, high ones weaker potency. For the compound `Nc1nc(Nc2ccc3c(c2)CC[C@@H](N2CCCC2)CC3)nn1-c1cc2c(nn1)-c1ccccc1CCC2` [Compound A, 1-(6,7-dihydro-5H-benzo[6,7]cyclohepta[1,2-c]pyridazine-3-yl)-N^3-(7-(S)-(pyrrolidin-1-yl)-6,7,8,9-tetrahydro-5H-benzo[7]annulene-2-yl)-1H-1,2,4-triazole-3,5-diamine], the “binding to plasma protein” value with plasma protein is on record as greater than 99%. Moreover, the “cell death in proliferation assays” value in series [1] is reported as “all cells are dead”. Also, the Kd on Flt1 was 400 nM; on TEK it was 270 nM; at Tyro3 it was greater than 1000 nM. The IC50 against c-Kit (D816H) worked out at 8 nM; on c-Kit (D816V) it was 177 nM.
